This note sets out measurements from patent US20260356819A1, “OXOISOINDOLINYL-SUBSTITUTED […] DERIVATIVE AND USE THEREOF” (GLUETACS THERAPEUTICS (SHANGHAI) CO., LTD., priority 2023, published 2026).

Type in all cases: cell-based
Common to all, as to settings: compounds at 50 nM and 500 nM

One experiment deals with T1, CK1α (Homo sapiens, UniProt P48729+Q96SW2).
T1 construct: The supernatant was aspirated as the extracted total cell protein; endogenous in cells; host or cells: human peripheral blood mononuclear cells (hPBMCs)
Put plainly: Western blot degradation of CK1α in hPBMCs (24 h). The method, then: (§1) Conventional Western blot assay was performed to evaluate the effects of the compounds of the present disclosure on the expression of target proteins in cells. • (1) Cell Seeding and Protein Harvesting: Human peripheral blood mononuclear cells (hPBMCs) at a density of 1×10^6 cells/mL were thawed according to the PBMC Recovery Protocol (Milecell Biotechnologies Inc, Shanghai). The cells were then treated with the compounds of the present disclosure (including the compounds listed in Table 1, and the Examples 1-498 compounds) at concentrations of 50 nM and 500 nM. Controls included a negative control (DMSO) and a positive control (the commercial immunomodulatory drug lenalidomide), both processed following the identical experimental protocol as the compounds of the present disclosure. After 24 hours of compounds treatment, cells were harvested and lysed in RIPA protein lysate containing protease inhibitors on ice for 30 min, followed by centrifugation. The supernatant was aspirated as the extracted total cell protein. The protein concentration of the supernatant was determined using the conventional BCA (Bicinchoninic Acid) assay. • (2) To the collected supernatant, 5×SDS sample loading buffer was added, followed by denaturation at 95 °C for 5 minutes. The denatured samples were then separated by SDS-PAGE electrophoresis on a polyacrylamide gel. Proteins were transferred to a nitrocellulose membrane (0.45 μm NC membrane), blocked with blocking buffer at room temperature for 1 hour, and subjected to antibody incubation and development procedures according to the antibody manufacturer's instructions (Cell Signaling Technology).
(§2) Half-Maximal Degradation Concentration value (the drug concentration required for degrading proteins by 50%, abbreviated as DC50) reads method: comparing the grayscale values of Western blot bands from drug-treated samples with those from blank DMSO-treated controls, and identifying the drug concentration range at which the grayscale value is half that of the DMSO-treated control bands.
(§3) DC50 values can be calculated using ImageJ software to measure grayscale values of Western blot bands from drug-treated samples. The concentration-response curve is fitted to estimate the drug concentration corresponding to half the grayscale value.
(§4) Target protein remaining (%) refers to the percentage of target protein remaining in cells after treatment with protein degrader compounds.
(§5) Calculation method for target protein remaining (%): Use ImageJ software to measure grayscale values of Western blot bands from drug (protein degrader)-treated samples. The grayscale value of drug-treated bands is divided by that of internal control protein bands, and the resulting quotient is normalized to obtain the relative percentage of remaining target protein after protein degrader treatment.
(§6) Target protein degradation rate (%)=1−target protein remaining (%).

The next experiment deals with T2, IKZF3 (Homo sapiens, UniProt Q96SW2+Q9UKT9).
T2 construct: The supernatant was aspirated as the extracted total cell protein; endogenous in cells; host or cells: human peripheral blood mononuclear cells (hPBMCs)
In words: Western blot degradation of IKZF3 in hPBMCs (24 h). The method, then:
as §1, §2, §3, §4, §5, §6
A general note: In western blotting, separated proteins are transferred to a membrane and probed.

The next experiment concerns the target T3, IKZF1 (Homo sapiens, UniProt Q13422+Q96SW2).
T3 construct: The supernatant was aspirated as the extracted total cell protein; endogenous in cells; host or cells: human peripheral blood mononuclear cells (hPBMCs)
Put plainly: Western blot degradation of IKZF1 in hPBMCs (24 h). The method, then:
as §1, §2, §3, §4, §5, §6

For another experiment, the target named is T4, GSPT1 (Homo sapiens, UniProt P15170+Q96SW2).
T4 construct: The supernatant was aspirated as the extracted total cell protein; endogenous in cells; host or cells: human peripheral blood mononuclear cells (hPBMCs)
Put plainly: Western blot degradation of GSPT1 in hPBMCs (24 h). The method, then: as §1, §2, §3, §4, §5, §6

In a further experiment the target is T5, IKZF2 (Homo sapiens, UniProt Q96SW2+Q9UKS7).
T5 construct: The supernatant was aspirated as the extracted total cell protein; endogenous in cells; host or cells: human peripheral blood mononuclear cells (hPBMCs)
In words: Western blot degradation of IKZF2 in hPBMCs (24 h). The method, then: as §1, §2, §3, §4, §5, §6

A further experiment has as its target T6, WEE1 (Homo sapiens, UniProt P30291+Q96SW2).
T6 construct: The supernatant was aspirated as the extracted total cell protein; endogenous in cells; host or cells: human peripheral blood mononuclear cells (hPBMCs)
Put plainly: Western blot degradation of WEE1 in hPBMCs (24 h). The method, then: as §1, §2, §3, §4, §5, §6

T6 sequence (P30291 whole entry): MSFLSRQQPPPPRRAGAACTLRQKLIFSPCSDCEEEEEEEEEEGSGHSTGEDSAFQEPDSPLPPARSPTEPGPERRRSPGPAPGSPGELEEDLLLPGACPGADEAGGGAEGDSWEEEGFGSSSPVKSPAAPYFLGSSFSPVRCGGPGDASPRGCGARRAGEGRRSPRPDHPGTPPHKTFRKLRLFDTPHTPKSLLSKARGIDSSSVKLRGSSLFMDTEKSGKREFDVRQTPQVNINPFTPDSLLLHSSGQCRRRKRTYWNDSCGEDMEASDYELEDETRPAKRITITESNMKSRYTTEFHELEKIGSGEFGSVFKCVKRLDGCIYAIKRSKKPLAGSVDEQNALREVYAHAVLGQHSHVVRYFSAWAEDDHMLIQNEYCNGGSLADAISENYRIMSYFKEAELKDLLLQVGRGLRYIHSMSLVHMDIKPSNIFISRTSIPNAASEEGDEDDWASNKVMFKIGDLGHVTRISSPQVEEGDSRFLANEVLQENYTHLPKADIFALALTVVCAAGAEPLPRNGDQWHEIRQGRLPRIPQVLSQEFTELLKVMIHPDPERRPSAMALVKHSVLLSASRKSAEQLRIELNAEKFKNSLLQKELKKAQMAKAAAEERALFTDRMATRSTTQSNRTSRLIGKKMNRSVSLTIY
T6 sequence (Q96SW2 whole entry): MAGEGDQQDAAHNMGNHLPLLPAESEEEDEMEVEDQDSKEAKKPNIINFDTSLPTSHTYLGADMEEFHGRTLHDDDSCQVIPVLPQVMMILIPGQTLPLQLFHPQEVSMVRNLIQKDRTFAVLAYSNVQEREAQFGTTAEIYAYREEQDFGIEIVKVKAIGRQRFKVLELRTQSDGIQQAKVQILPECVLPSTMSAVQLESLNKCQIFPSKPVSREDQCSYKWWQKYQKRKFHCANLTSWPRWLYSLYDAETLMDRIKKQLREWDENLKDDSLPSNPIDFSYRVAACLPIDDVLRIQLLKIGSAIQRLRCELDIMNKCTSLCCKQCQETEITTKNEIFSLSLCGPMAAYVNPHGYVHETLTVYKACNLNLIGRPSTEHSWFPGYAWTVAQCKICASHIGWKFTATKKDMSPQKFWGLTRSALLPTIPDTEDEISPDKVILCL
T6 sequence (Q16531 whole entry partner): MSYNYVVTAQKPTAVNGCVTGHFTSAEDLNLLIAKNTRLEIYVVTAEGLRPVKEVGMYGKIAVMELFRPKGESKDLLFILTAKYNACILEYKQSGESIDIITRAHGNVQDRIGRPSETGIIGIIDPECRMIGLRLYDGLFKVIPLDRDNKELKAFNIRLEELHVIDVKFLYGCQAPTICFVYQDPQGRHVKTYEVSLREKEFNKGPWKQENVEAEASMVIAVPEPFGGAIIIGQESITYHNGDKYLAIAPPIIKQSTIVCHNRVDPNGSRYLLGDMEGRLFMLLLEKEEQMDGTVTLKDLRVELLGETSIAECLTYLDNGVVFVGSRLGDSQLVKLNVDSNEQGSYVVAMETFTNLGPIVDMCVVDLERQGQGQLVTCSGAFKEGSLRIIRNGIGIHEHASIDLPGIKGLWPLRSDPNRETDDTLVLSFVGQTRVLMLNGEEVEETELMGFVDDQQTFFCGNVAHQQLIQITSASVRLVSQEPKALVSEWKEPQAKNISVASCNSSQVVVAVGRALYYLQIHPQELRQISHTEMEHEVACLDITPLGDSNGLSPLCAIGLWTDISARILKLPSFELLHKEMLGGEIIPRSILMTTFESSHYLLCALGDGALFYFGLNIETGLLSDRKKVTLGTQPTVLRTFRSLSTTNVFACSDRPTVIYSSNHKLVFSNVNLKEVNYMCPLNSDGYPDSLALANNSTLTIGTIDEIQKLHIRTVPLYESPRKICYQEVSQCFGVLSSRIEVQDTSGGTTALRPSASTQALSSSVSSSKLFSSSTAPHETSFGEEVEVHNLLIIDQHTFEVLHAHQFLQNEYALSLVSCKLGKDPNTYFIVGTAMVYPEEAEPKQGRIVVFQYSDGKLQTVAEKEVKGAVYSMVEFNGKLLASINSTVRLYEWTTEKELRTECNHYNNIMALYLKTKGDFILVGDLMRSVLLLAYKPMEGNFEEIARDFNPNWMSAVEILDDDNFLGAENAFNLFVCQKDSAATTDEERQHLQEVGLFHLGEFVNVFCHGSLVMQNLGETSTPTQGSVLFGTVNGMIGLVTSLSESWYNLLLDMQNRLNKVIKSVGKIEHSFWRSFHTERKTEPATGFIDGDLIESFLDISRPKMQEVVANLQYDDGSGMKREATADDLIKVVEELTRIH
T4 sequence (P15170 whole entry): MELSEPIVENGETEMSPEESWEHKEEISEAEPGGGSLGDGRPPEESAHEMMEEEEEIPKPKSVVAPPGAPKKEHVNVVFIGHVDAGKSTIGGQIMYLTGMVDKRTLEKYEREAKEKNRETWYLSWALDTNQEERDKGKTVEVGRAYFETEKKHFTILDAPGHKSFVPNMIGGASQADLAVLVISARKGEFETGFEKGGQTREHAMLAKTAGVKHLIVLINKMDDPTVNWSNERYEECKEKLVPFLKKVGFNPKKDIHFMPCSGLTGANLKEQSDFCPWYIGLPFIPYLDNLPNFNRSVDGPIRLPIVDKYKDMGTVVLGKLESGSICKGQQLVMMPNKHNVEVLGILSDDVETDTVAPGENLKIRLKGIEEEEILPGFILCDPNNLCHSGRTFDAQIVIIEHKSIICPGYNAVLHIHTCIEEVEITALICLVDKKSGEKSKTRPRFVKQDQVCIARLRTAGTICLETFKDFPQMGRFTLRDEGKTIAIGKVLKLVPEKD
T4 sequence (Q96SW2 whole entry): as the sequence (Q96SW2 whole entry) above
T4 sequence (Q16531 whole entry partner): as the sequence (Q16531 whole entry partner) above
T1 sequence (P48729 whole entry): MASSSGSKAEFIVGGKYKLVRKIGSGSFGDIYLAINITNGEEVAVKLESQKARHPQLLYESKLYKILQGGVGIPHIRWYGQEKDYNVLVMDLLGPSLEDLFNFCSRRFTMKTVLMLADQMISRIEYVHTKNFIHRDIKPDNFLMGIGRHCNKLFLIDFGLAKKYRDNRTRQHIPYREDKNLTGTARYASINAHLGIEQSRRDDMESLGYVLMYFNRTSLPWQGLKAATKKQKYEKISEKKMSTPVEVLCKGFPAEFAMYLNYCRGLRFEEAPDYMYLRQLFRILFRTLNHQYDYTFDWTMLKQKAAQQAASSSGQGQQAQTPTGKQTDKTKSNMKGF
T1 sequence (Q96SW2 whole entry): as the sequence (Q96SW2 whole entry) above
T1 sequence (Q16531 whole entry partner): as the sequence (Q16531 whole entry partner) above
T3 sequence (Q13422 whole entry): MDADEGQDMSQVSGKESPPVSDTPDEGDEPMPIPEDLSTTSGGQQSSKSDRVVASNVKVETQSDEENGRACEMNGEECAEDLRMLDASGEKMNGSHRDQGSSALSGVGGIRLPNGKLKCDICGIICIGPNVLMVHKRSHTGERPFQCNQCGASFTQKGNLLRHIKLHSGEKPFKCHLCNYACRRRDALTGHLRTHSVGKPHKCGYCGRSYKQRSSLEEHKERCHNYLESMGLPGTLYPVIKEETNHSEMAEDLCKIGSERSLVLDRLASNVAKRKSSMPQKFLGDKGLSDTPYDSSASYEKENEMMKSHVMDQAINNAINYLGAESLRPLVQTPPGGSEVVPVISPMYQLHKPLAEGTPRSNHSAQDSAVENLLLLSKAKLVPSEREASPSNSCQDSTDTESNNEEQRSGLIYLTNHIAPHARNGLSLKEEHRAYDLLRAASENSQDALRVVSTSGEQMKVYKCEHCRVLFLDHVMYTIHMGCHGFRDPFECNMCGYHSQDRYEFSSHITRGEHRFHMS
T3 sequence (Q96SW2 whole entry): as the sequence (Q96SW2 whole entry) above
T3 sequence (Q16531 whole entry partner): as the sequence (Q16531 whole entry partner) above
T5 sequence (Q9UKS7 whole entry): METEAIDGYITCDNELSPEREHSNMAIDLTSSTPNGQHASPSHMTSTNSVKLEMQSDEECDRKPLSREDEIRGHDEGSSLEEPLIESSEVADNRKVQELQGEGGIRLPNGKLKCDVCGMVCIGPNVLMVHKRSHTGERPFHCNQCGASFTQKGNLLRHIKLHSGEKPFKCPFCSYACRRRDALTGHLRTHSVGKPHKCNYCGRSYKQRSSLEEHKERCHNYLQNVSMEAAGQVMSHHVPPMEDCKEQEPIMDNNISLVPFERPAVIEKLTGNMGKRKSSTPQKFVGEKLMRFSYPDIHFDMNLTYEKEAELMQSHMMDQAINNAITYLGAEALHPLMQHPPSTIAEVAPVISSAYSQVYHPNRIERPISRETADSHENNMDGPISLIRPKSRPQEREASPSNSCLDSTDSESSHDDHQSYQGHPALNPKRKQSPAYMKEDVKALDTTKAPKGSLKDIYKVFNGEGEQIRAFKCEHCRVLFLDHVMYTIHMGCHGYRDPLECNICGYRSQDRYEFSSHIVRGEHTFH
T5 sequence (Q96SW2 whole entry): as the sequence (Q96SW2 whole entry) above
T5 sequence (Q16531 whole entry partner): as the sequence (Q16531 whole entry partner) above

As to `O=C1CCN(N2C(=O)c3ccc(CN4CCN(c5cccc(Cl)c5Cl)CC4)cc3C2=O)C(=O)N1` [GT-04854, 5-((4-(2,3-dichlorophenyl)piperazin-1-yl)methyl)-2-(2,4-dioxotetrahydropyrimidin-1(2H)-yl)isoindoline-1,3-dione], the “CK1α substrate protein remaining %” value on CK1α is reported as “B (80%< substrate protein remaining % ≤100%)”. The “IKZF3 substrate protein remaining %” value on IKZF3 is recorded as “B (80%< substrate protein remaining % ≤100%)”. On IKZF1, the “IKZF1 substrate protein remaining %” value is on record as “A (0% ≤ substrate protein remaining % ≤80%)”. In addition, the “GSPT1 substrate protein remaining %” value on GSPT1 is given as “A (0% ≤ substrate protein remaining % ≤80%)”. The “IKZF2 substrate protein remaining %” value at IKZF2 is reported as “A (0% ≤ substrate protein remaining % ≤80%)”. At WEE1, the “WEE1 substrate protein remaining %” value is “A (0% ≤ substrate protein remaining % ≤80%)”.
`O=C1CCN(N2Cc3cc(CN4CCC(c5noc6cc(F)ccc56)CC4)ccc3C2=O)C(=O)N1` [GT-04864, 1-(5-((4-(6-fluorobenzo[d]isoxazol-3-yl)piperidin-1-yl)methyl)-1-oxoisoindolin-2-yl)dihydropyrimidine-2,4(1H,3H)-dione]: the “CK1α substrate protein remaining %” value at CK1α is reported as “B (80%< substrate protein remaining % ≤100%)”. Also, the “IKZF3 substrate protein remaining %” value at IKZF3 is recorded as “B (80%< substrate protein remaining % ≤100%)”. Besides, on IKZF1, the “IKZF1 substrate protein remaining %” value is “A (0% ≤ substrate protein remaining % ≤80%)”. For the same compound, on GSPT1, the “GSPT1 substrate protein remaining %” value is listed as “A (0% ≤ substrate protein remaining % ≤80%)”. Also, the “IKZF2 substrate protein remaining %” value at IKZF2 is recorded as “B (80%< substrate protein remaining % ≤100%)”. On WEE1, the “WEE1 substrate protein remaining %” value is recorded as “B (80%< substrate protein remaining % ≤100%)”.
`O=C1CCN(N2Cc3cc(CN4CCN(c5nsc6ccccc56)CC4)ccc3C2=O)C(=O)N1` [GT-04865, 1-(5-((4-(benzo[d]isothiazol-3-yl)piperazin-1-yl)methyl)-1-oxoisoindolin-2-yl)dihydropyrimidine-2,4(1H,3H)-dione]: the “CK1α substrate protein remaining %” value at CK1α is recorded as “B (80%< substrate protein remaining % ≤100%)”. Besides, at IKZF3, the “IKZF3 substrate protein remaining %” value is on record as “B (80%< substrate protein remaining % ≤100%)”. Also, the “IKZF1 substrate protein remaining %” value at IKZF1 was “A (0% ≤ substrate protein remaining % ≤80%)”. In addition, on GSPT1, the “GSPT1 substrate protein remaining %” value is listed as “A (0% ≤ substrate protein remaining % ≤80%)”. The “IKZF2 substrate protein remaining %” value at IKZF2 was “B (80%< substrate protein remaining % ≤100%)”. Moreover, the “WEE1 substrate protein remaining %” value at WEE1 is “B (80%< substrate protein remaining % ≤100%)”.
For the compound `O=C1CCN(N2Cc3cc(CN4CCN(C(c5ccccc5)c5ccncc5)CC4)ccc3C2=O)C(=O)N1` (stereo not shown) [GT-04891, 1-(1-oxo-5-((4-(phenyl(pyridin-4-yl)methyl)piperazin-1-yl)methyl)isoindolin-2-yl)dihydropyrimidine-2,4(1H,3H)-dione], the “CK1α substrate protein remaining %” value at CK1α is “B (80%< substrate protein remaining % ≤100%)”. Moreover, the “IKZF3 substrate protein remaining %” value at IKZF3 was “B (80%< substrate protein remaining % ≤100%)”. In addition, on IKZF1, the “IKZF1 substrate protein remaining %” value is “A (0% ≤ substrate protein remaining % ≤80%)”. Moreover, the “GSPT1 substrate protein remaining %” value on GSPT1 is recorded as “A (0% ≤ substrate protein remaining % ≤80%)”. The “IKZF2 substrate protein remaining %” value on IKZF2 is recorded as “A (0% ≤ substrate protein remaining % ≤80%)”. Moreover, the “WEE1 substrate protein remaining %” value at WEE1 was “B (80%< substrate protein remaining % ≤100%)”.
`O=C1CCN(N2Cc3cc(CN4CCN(C(c5ccc(Cl)cc5)c5ccc(Cl)cc5)CC4)ccc3C2=O)C(=O)N1` [GT-04895, 1-(5-((4-(bis(4-chlorophenyl)methyl)piperazin-1-yl)methyl)-1-oxoisoindolin-2-yl)dihydropyrimidine-2,4(1H,3H)-dione]: the “CK1α substrate protein remaining %” value on CK1α is “B (80%< substrate protein remaining % ≤100%)”. Further, the “IKZF3 substrate protein remaining %” value on IKZF3 is “B (80%< substrate protein remaining % ≤100%)”. Moreover, the “IKZF1 substrate protein remaining %” value on IKZF1 is reported as “A (0% ≤ substrate protein remaining % ≤80%)”. The “GSPT1 substrate protein remaining %” value at GSPT1 is given as “A (0% ≤ substrate protein remaining % ≤80%)”. Also, at IKZF2, the “IKZF2 substrate protein remaining %” value is recorded as “A (0% ≤ substrate protein remaining % ≤80%)”. Besides, the “WEE1 substrate protein remaining %” value on WEE1 is given as “B (80%< substrate protein remaining % ≤100%)”.
As for `O=C1CCN(N2Cc3cc(CN4C[C@@H]5C[C@H]4CN5C(c4ccccc4)c4ccccc4)ccc3C2=O)C(=O)N1` [GT-04938, 1-(5-(((1S,4S)-5-benzhydryl-2,5-diazabicyclo[2.2.1]heptan-2-yl)methyl)-1-oxoisoindolin-2-yl)dihydropyrimidine-2,4(1H,3H)-dione], the “CK1α substrate protein remaining %” value at CK1α is “B (80%< substrate protein remaining % ≤100%)”. The “IKZF3 substrate protein remaining %” value on IKZF3 was “B (80%< substrate protein remaining % ≤100%)”. Moreover, the “IKZF1 substrate protein remaining %” value at IKZF1 is reported as “B (80%< substrate protein remaining % ≤100%)”. In addition, the “GSPT1 substrate protein remaining %” value on GSPT1 is given as “A (0% ≤ substrate protein remaining % ≤80%)”. Moreover, the “IKZF2 substrate protein remaining %” value on IKZF2 is “A (0% ≤ substrate protein remaining % ≤80%)”. The “WEE1 substrate protein remaining %” value at WEE1 is given as “A (0% ≤ substrate protein remaining % ≤80%)”.
In the case of `O=C1CCN(N2Cc3cc(CN4CCN(c5cccs5)CC4)ccc3C2=O)C(=O)N1` [GT-05073, 1-(1-oxo-5-((4-(thiophen-2-yl)piperazin-1-yl)methyl)isoindolin-2-yl)dihydropyrimidine-2,4(1H,3H)-dione], the “CK1α substrate protein remaining %” value at CK1α is given as “B (80%< substrate protein remaining % ≤100%)”. Moreover, at IKZF3, the “IKZF3 substrate protein remaining %” value was “A (0% ≤ substrate protein remaining % ≤80%)”. In addition, the “IKZF1 substrate protein remaining %” value on IKZF1 was “B (80%< substrate protein remaining % ≤100%)”. Besides, the “GSPT1 substrate protein remaining %” value on GSPT1 is “B (80%< substrate protein remaining % ≤100%)”. In addition, at IKZF2, the “IKZF2 substrate protein remaining %” value is recorded as “B (80%< substrate protein remaining % ≤100%)”. Moreover, the “WEE1 substrate protein remaining %” value at WEE1 is “B (80%< substrate protein remaining % ≤100%)”.
With `Cc1ccc(N2CCN(Cc3ccc4c(c3)CN(N3CCC(=O)NC3=O)C4=O)CC2)s1` [GT-05083, 1-(5-((4-(5-methylthiophen-2-yl)piperazin-1-yl)methyl)-1-oxoisoindolin-2-yl)dihydropyrimidine-2,4(1H,3H)-dione], the “CK1α substrate protein remaining %” value at CK1α is “B (80%< substrate protein remaining % ≤100%)”. Moreover, the “IKZF3 substrate protein remaining %” value at IKZF3 is given as “B (80%< substrate protein remaining % ≤100%)”. Also, the “IKZF1 substrate protein remaining %” value at IKZF1 is “B (80%< substrate protein remaining % ≤100%)”. Further, the “GSPT1 substrate protein remaining %” value at GSPT1 was “B (80%< substrate protein remaining % ≤100%)”. Moreover, the “IKZF2 substrate protein remaining %” value on IKZF2 is “A (0% ≤ substrate protein remaining % ≤80%)”. Also, at WEE1, the “WEE1 substrate protein remaining %” value is recorded as “B (80%< substrate protein remaining % ≤100%)”.
For `Cc1ccsc1N1CCN(Cc2ccc3c(c2)CN(N2CCC(=O)NC2=O)C3=O)CC1` [GT-05084, 1-(5-((4-(3-methylthiophen-2-yl)piperazin-1-yl)methyl)-1-oxoisoindolin-2-yl)dihydropyrimidine-2,4(1H,3H)-dione], the “CK1α substrate protein remaining %” value at CK1α was “B (80%< substrate protein remaining % ≤100%)”. The “IKZF3 substrate protein remaining %” value on IKZF3 is “B (80%< substrate protein remaining % ≤100%)”. Besides, the “IKZF1 substrate protein remaining %” value on IKZF1 was “B (80%< substrate protein remaining % ≤100%)”. Also, on GSPT1, the “GSPT1 substrate protein remaining %” value is recorded as “B (80%< substrate protein remaining % ≤100%)”. In addition, at IKZF2, the “IKZF2 substrate protein remaining %” value is recorded as “A (0% ≤ substrate protein remaining % ≤80%)”. For the same compound, at WEE1, the “WEE1 substrate protein remaining %” value is given as “B (80%< substrate protein remaining % ≤100%)”.
As for `O=C1CCN(N2Cc3cc(CN4CCN(c5cccc(C(F)(F)F)n5)CC4)ccc3C2=O)C(=O)N1` [GT-05175, 1-(1-oxo-5-((4-(6-(trifluoromethyl)pyridin-2-yl)piperazin-1-yl)methyl)isoindolin-2-yl)dihydropyrimidine-2,4(1H,3H)-dione], on IKZF1, the “IKZF1 substrate protein remaining %” value is reported as “B (80%< substrate protein remaining % ≤100%)”. On GSPT1, the “GSPT1 substrate protein remaining %” value was “A (0% ≤ substrate protein remaining % ≤80%)”. Further, the “IKZF2 substrate protein remaining %” value on IKZF2 is “B (80%< substrate protein remaining % ≤100%)”. Besides, at WEE1, the “WEE1 substrate protein remaining %” value is “A (0% ≤ substrate protein remaining % ≤80%)”.
